The assay addresses T1, LHRH rat pituitary receptor (Rattus norvegicus, UniProt P30969).
T1 construct: from tissue; host or cells: rat pituitary
T1 sequence (P30969 1-327): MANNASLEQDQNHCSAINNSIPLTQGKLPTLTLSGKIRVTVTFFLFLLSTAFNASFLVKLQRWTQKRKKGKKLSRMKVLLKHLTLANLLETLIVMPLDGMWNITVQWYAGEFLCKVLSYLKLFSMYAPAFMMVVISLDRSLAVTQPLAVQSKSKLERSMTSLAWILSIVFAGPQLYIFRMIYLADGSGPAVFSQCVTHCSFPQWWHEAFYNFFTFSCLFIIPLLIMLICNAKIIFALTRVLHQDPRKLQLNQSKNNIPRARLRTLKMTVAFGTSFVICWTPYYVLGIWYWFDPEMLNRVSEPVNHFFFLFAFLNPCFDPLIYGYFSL
Nature of the assay: LHRH rat pituitary receptor binding (pKI). Conditions: receptor binding affinity, negative logarithm of the equilibrium dissociation constants. On the procedure:
Representative compounds of the present invention were evaluated in in vitro tests for LHRH rat pituitary receptor binding (pKI) and for LH inhibition from rat pituitary cells for antagonist potency (pA2). The tests employed the methods detailed in F. Haviv, et al. J. Med. Chem., 32: 2340-2344 (1989). The receptor binding affinity (pKI) is the negative logarithm of the equilibrium dissociation constants.

In general, Ki refers to a measure of affinity in units of concentration, obtained from inhibition or displacement. The compound `CC[C@H]1OC(=O)[C@H](C)[C@@H](OC(=O)N2C(=O)OC[C@@H]2C)[C@H](C)[C@@H](O[C@@H]2O[C@H](C)C[C@H](N(CC3CC3)C(C)C)[C@H]2O)[C@](C)(OC)C[C@@H](C)C(=O)[C@H](C)[C@H]2N(CCc3ccc(Cl)c(Cl)c3)C(=O)O[C@]12C` [Example 22, 11-Deoxy-11-[carboxy(3,4-dichlorophenethyl)amino]-3-O-[4-(S)-methyl-oxazolidin-2-one]carbamoyl-5-O-(3'-bis-N-desmethyl-3'-N-cyclopropylmethyl-3'-N-isopropyl)desosaminyl-6-O-methyl-erythronolide A 11,12-(cyclic carbamate)] had a Ki of 0.0741 nM. The same measure, in the same setting: in the case of `CC[C@H]1OC(=O)[C@H](C)[C@@H](OC(=O)N2C(=O)OC[C@@H]2C)[C@H](C)[C@@H](O[C@@H]2O[C@H](C)C[C@H](N(C)CC3CC3)[C@H]2O)[C@](C)(OC)C[C@@H](C)C(=O)[C@H](C)[C@H]2N(CCc3ccc(Cl)cc3)C(=O)O[C@]12C` [Example 23, 11-Deoxy-11-[carboxy(4-chlorophenethyl)amino]-3-O-[4-(S)-methyl-oxazolidin-2-one]carbamoyl-5-O-(3'-N-desmethyl-3'-N-cyclopropylmethyl)desosaminyl-6-O-methyl-erythronolide A 11,12-(cyclic carbamate)] it was 1.45 nM; in that of `CC[C@H]1OC(=O)[C@H](C)[C@@H](OC(=O)N2C(=O)OC[C@@H]2C)[C@H](C)[C@@H](O[C@@H]2O[C@H](C)C[C@H](N(C)C3CCC3)[C@H]2O)[C@](C)(OC)C[C@@H](C)C(=O)[C@H](C)[C@H]2N(CCc3ccc(Cl)cc3)C(=O)O[C@]12C` [Example 24, 11-Deoxy-11-[carboxy(4-chlorophenethyl)amino]-3-O-[4-(S)-methyl-oxazolidin-2-one]carbamoyl-5-O-(3'-N-desmethyl-3'-N-cyclobutyl)desosaminyl-6-O-methyl-erythronolide A 11,12-(cyclic carbamate)], 0.251 nM; in that of `CC[C@H]1OC(=O)[C@H](C)[C@@H](OC(=O)N2C(=O)OC[C@@H]2C)[C@H](C)[C@@H](O[C@@H]2O[C@H](C)C[C@H](N(C)C3CCCCC3)[C@H]2O)[C@](C)(OC)C[C@@H](C)C(=O)[C@H](C)[C@H]2N(CCc3ccc(Cl)cc3)C(=O)O[C@]12C` [Example 26, 11-Deoxy-11-[carboxy(4-chlorophenethyl)amino]-3-O-[4-(S)-methyl-oxazolidin-2-one]carbamoyl-5-O-(3'-N-desmethyl-3'-N-cyclohexyl)desosaminyl-6-O-methyl-erythronolide A 11,12-(cyclic carbamate)], 0.166 nM. As to `CCCN(C)[C@H]1C[C@@H](C)O[C@@H](O[C@@H]2[C@@H](C)[C@H](OC(=O)N3C(=O)OC[C@@H]3C)[C@@H](C)C(=O)O[C@H](CC)[C@@]3(C)OC(=O)N(CCc4ccc(Cl)cc4)[C@@H]3[C@@H](C)C(=O)[C@H](C)C[C@@]2(C)OC)[C@@H]1O` [Example 27, 11-Deoxy-11-carboxy(4-chlorophenethyl)amino]-3-O-[4-(S)-methyl-oxazolidin-2-one]carbamoyl-5-O-(3'-N-desmethyl-3'-N-n-propyl)desosaminyl-6-O-methyl-erythronolide A 11,12-(cyclic carbamate)], the “p KI” value came out at 9.60. Turning to `CC[C@H]1OC(=O)[C@H](C)[C@@H](OC(=O)N2C(=O)OC[C@@H]2C)[C@H](C)[C@@H](O[C@@H]2O[C@H](C)C[C@H](N(C)CC3CC3)[C@H]2O)[C@](C)(OC)C[C@@H](C)C(=O)[C@H](C)[C@H]2N(CCc3ccc(F)cc3)C(=O)O[C@]12C` [Example 28, 11-Deoxy-11-[carboxy(4-fluorophenethyl)amino]-3-O-[4-(S)-methyl-oxazolidin-2-one]carbamoyl-5-O-(3'-N-desmethyl-3'-N-cyclopropylmethyl)desosaminyl-6-O-methyl-erythronolide A 11,12-(cyclic carbamate)], the affinity corresponds to a Ki of 0.316 nM.

As for `CC[C@H]1OC(=O)[C@H](C)[C@@H](OC(=O)N2C(=O)OC[C@@H]2C)[C@H](C)[C@@H](O[C@@H]2O[C@H](C)C[C@H](N(C)C3CCC3)[C@H]2O)[C@](C)(OC)C[C@@H](C)C(=O)[C@H](C)[C@H]2N(CCc3ccc(F)cc3)C(=O)O[C@]12C` [Example 29, 11-Deoxy-11-[carboxy(4-fluorophenethyl)amino]-3-O-[4-(S)-methyl-oxazolidin-2-one]carbamoyl-5-O-(3'-N-desmethyl-3'-N-cyclobutyl)desosaminyl-6-O-methyl-erythronolide A 11,12-(cyclic carbamate)], the affinity, expressed as Ki, was 0.105 nM. The same measure, in the same setting: in the case of `CC[C@H]1OC(=O)[C@H](C)[C@@H](OC(=O)N2C(=O)OC[C@@H]2C)[C@H](C)[C@@H](O[C@@H]2O[C@H](C)C[C@H](N(C)C3CCCC3)[C@H]2O)[C@](C)(OC)C[C@@H](C)C(=O)[C@H](C)[C@H]2N(CCc3ccc(F)cc3)C(=O)O[C@]12C` [Example 30, 11-Deoxy-11-[carboxy(4-fluorophenethyl)amino]-3-O-[4-(S)-methyl-oxazolidin-2-one]carbamoyl-5-O-(3'-N-desmethyl-3'-N-cyclopentyl)desosaminyl-6-O-methyl-erythronolide A 11,12-(cyclic carbamate)] it was 0.129 nM. Still for that read-out and setting: in the case of `CCCN(C)[C@H]1C[C@@H](C)O[C@@H](O[C@@H]2[C@@H](C)[C@H](OC(=O)N3C(=O)OC[C@@H]3C)[C@@H](C)C(=O)O[C@H](CC)[C@@]3(C)OC(=O)N(CCc4ccc(F)cc4)[C@@H]3[C@@H](C)C(=O)[C@H](C)C[C@@]2(C)OC)[C@@H]1O` [Example 31, 11-Deoxy-11-[carboxy(4-fluorophenethyl)amino]-3-O-[4-(S)-methyl-oxazolidin-2-one]carbamoyl-5-O-(3'-N-desmethyl-3'-N-n-propyl)desosaminyl-6-O-methyl-erythronolide A 11,12-(cyclic carbamate)] it was 0.955 nM. On the same count and under the same terms, in the case of `CC[C@H]1OC(=O)[C@H](C)[C@@H](OC(=O)N2C(=O)OC[C@@H]2C)[C@H](C)[C@@H](O[C@@H]2O[C@H](C)C[C@H](N(C)C(C)C)[C@H]2O)[C@](C)(OC)C[C@@H](C)C(=O)[C@H](C)[C@H]2N(CCc3ccc(F)cc3)C(=O)O[C@]12C` [Example 32, 11-Deoxy-11-[carboxy(4-fluorophenethyl)amino]-3-O-[4-(S)-methyl-oxazolidin-2-one]carbamoyl-5-O-(3'-N-desmethyl-3'-N-isopropyl)desosaminyl-6-O-methyl-erythronolide A 11,12-(cyclic carbamate)] it was 0.155 nM; in that of `CC[C@H]1OC(=O)[C@H](C)[C@@H](OC(=O)N2C(=O)OC[C@@H]2C)[C@H](C)[C@@H](O[C@@H]2O[C@H](C)C[C@H](N(C)C3CCC3)[C@H]2O)[C@](C)(OC)C[C@@H](C)C(=O)[C@H](C)[C@H]2N(CCc3ccc(F)c(Cl)c3)C(=O)O[C@]12C` [Example 34, 11-Deoxy-11-[carboxy(3-chloro-fluorophenethyl)amino]-3-O-[4-(S)-methyl-oxazolidin-2-one]carbamoyl-5-O-(3'-N-desmethyl-3'-N-cyclobutyl)desosaminyl-6-O-methyl-erythronolide A 11,12-(cyclic carbamate)], 0.0832 nM. `CC[C@H]1OC(=O)[C@H](C)[C@@H](OC(=O)N2C(=O)OC[C@@H]2C)[C@H](C)[C@@H](O[C@@H]2O[C@H](C)C[C@H](N(C)C3CCCC3)[C@H]2O)[C@](C)(OC)C[C@@H](C)C(=O)[C@H](C)[C@H]2N(CCc3ccc(F)c(Cl)c3)C(=O)O[C@]12C` [Example 35, 11-Deoxy-11-[carboxy(3-chloro-4-fluorophenethyl)amino]-3-O-[4-(S)-methyl-oxazolidin-2-one]carbamoyl-5-O-(3'-N-desmethyl-3'-N-cyclopentyl)desosaminyl-6-O-methyl-erythronolide A 11,12-(cyclic carbamate)] showed an inhibition constant Ki of 0.851 nM. The same measure, in the same setting: in the case of `CC[C@H]1OC(=O)[C@H](C)[C@@H](OC(=O)N2C(=O)OC[C@@H]2C)[C@H](C)[C@@H](O[C@@H]2O[C@H](C)C[C@H](N(C)CC3CC3)[C@H]2O)[C@](C)(OC)C[C@@H](C)C(=O)[C@H](C)[C@H]2N(CCc3ccc(Cl)c(F)c3)C(=O)O[C@]12C` [Example 36, 11-Deoxy-11-[carboxy(4-chloro-3-fluorophenethyl)amino]-3-O-[4-(S)-methyl-oxazolidin-2-one]carbamoyl-5-O-(3'-N-desmethyl-3'-N-cyclopropylmethyl)desosaminyl-6-O-methyl-erythronolide A 11,12-(cyclic carbamate)] it was 3.72 nM; in that of `CC[C@H]1OC(=O)[C@H](C)[C@@H](OC(=O)N2C(=O)OC[C@H]2C)[C@H](C)[C@@H](O[C@@H]2O[C@H](C)C[C@H](N(C)CC3CC3)[C@H]2O)[C@](C)(OC)C[C@@H](C)C(=O)[C@H](C)[C@H]2N(CCc3ccc(Cl)c(Cl)c3)C(=O)O[C@]12C` [Example 37, 11-Deoxy-11-[carboxy(3,4-dichlorophenethyl)amino]-3-O-[4-(R)-methyl-oxazolidin-2-one]carbamoyl-5-O-(3'-N-desmethyl-3'-N-cyclopropylmethyl)desosaminyl-6-O-methyl-erythronolide A 11,12-(cyclic carbamate)], 5.37 nM; in that of `CC[C@H]1COC(=O)N1C(=O)O[C@H]1[C@H](C)[C@@H](O[C@@H]2O[C@H](C)C[C@H](N(C)CC3CC3)[C@H]2O)[C@](C)(OC)C[C@@H](C)C(=O)[C@H](C)[C@H]2N(CCc3ccc(Cl)c(Cl)c3)C(=O)O[C@]2(C)[C@@H](CC)OC(=O)[C@@H]1C` [Example 38, 11-Deoxy-11-[carboxy(3,4-dichlorophenethyl)amino]-3-O-[4-(S)-ethyl-oxazolidin-2-one]carbamoyl-5-O-(3'-N-desmethyl-3'-N-cyclopropylmethyl)desosaminyl-6-O-methyl-erythronolide A 11,12-(cyclic carbamate)], 6.76 nM.
